From PubChem BioAssay (NCI)
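Values below derive from 48-hour exposures of cells grown in 96-well plates, with endpoints linearly interpolated between the two concentrations bracketing the appropriate inhibition level. GI50 marks 50% less growth. At the TGI there is no net growth.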

Tests used:
Test in all cases: DTP human tumour cell line panel, 48 h
OVCAR-5 ovarian = test system: OVCAR-5 ovarian
HCT-116 colon = test system: HCT-116 colon
MCF7 breast = test system: MCF7 breast
UO-31 renal = test system: UO-31 renal
786-0 renal = test system: 786-0 renal
HT29 colon = test system: HT29 colon
U251 CNS = test system: U251 CNS
OVCAR-4 ovarian = test system: OVCAR-4 ovarian
SK-OV-3 ovarian = test system: SK-OV-3 ovarian
HL-60(TB) leukemia = test system: HL-60(TB) leukemia

Row | Structure (SMILES) | GI50 (OVCAR-5 ovarian) | TGI (OVCAR-5 ovarian) | GI50 (HCT-116 colon) | TGI (HCT-116 colon) | GI50 (MCF7 breast) | TGI (MCF7 breast) | GI50 (UO-31 renal) | TGI (UO-31 renal) | GI50 (786-0 renal) | TGI (786-0 renal) | GI50 (HT29 colon) | TGI (HT29 colon) | GI50 (U251 CNS) | TGI (U251 CNS) | GI50 (OVCAR-4 ovarian) | TGI (OVCAR-4 ovarian) | GI50 (SK-OV-3 ovarian) | TGI (SK-OV-3 ovarian) | GI50 (HL-60(TB) leukemia) | TGI (HL-60(TB) leukemia)
1 | C=CC1C(CC2OC(CO)C(O)C(O)C2O)OC=C2C(=O)OCCC21O (stereo not given) | 14.4 µM | 44.5 µM | 16.2 µM | 32.1 µM | 21.6 µM | > 100 µM | 16.4 µM | > 100 µM | 2.67 µM | 17.5 µM | 2.23 µM | 8.02 µM | 13.2 µM | 28 µM | 5.82 µM | 30.2 µM | 46.6 µM | > 100 µM |  | 
2 | O=C1CS/C(=N/S(=O)(=O)c2ccc(N3N=C4c5ccccc5CC4C3c3cccs3)cc2)N1C(=O)c1ccccc1 (stereo not given) | 32.2 µM | > 100 µM | 22 µM | 55.9 µM | > 100 µM | > 100 µM | > 100 µM | > 100 µM | 48.8 µM | > 100 µM | 76.1 µM | > 100 µM | 36.3 µM | > 100 µM | > 100 µM | > 100 µM | > 100 µM | > 100 µM |  | 
3 | NC1=NC(SCc2ccccc2CCl)c2ncn(Cc3ccccc3CCl)c2N1 (stereo not given) | 2.7 µM | 9.88 µM | 1.47 µM | 3.06 µM | 2.17 µM | 19.9 µM | 1.51 µM | 3.08 µM | 1.85 µM | 3.97 µM | 1.88 µM | 4.01 µM | 1.45 µM | 2.82 µM | 2.83 µM | 10.2 µM | 3.87 µM | 13.9 µM |  | 
4 | N#CC1=C(N)NC(N2CCOCC2)=NC12Nc1ccccc1O2 (stereo not given) | > 100 µM | > 100 µM |  |  | 23.3 µM | 64.2 µM | 31.9 µM | > 100 µM | 21.5 µM | 60.1 µM | 47.2 µM | > 100 µM | 45.8 µM | > 100 µM | > 100 µM | > 100 µM | > 100 µM | > 100 µM | 48.3 µM | > 100 µM
5 | CCc1ccc2oc(=O)ccc2c1 |  | > 100 µM |  | > 100 µM |  | > 100 µM |  | > 100 µM |  | > 100 µM |  | > 100 µM |  | > 100 µM |  | > 100 µM |  |  |  | > 100 µM
6 | CN1CCN(Cc2ccc(NC(=O)c3[nH]ncc3Nc3ncnc4[nH]ccc34)cc2)CC1 | 0.456 µM | 17.4 µM | 0.214 µM | 13.1 µM | 0.118 µM | 29.1 µM | 0.82 µM | 4.57 µM | 0.301 µM | 2 µM |  |  | 0.251 µM | 10.7 µM | 0.215 µM | 0.68 µM |  |  | 0.27 µM | 0.626 µM
7 | CC1CCCC(C#N)(NOC2=NCCN2)C1 (stereo not given) | > 100 µM | > 100 µM | 31.7 µM | > 100 µM | 42.2 µM | > 100 µM | 31.8 µM | > 100 µM | > 100 µM | > 100 µM | 92.2 µM | > 100 µM | 23.4 µM | 78.7 µM | 48.3 µM | > 100 µM |  |  | 16.8 µM | 93 µM
